Experiments:
male Wistar rats = test: Renal ischemia-reperfusion (I/R) in anesthetized rats with BMOV infusion; type: in vivo, rat
Protocol: Thirty two male Wistar rats (Harlan Netherlands BV, Horst, The Netherlands) with a mean body weight of 280±30 grams were used in this study. The animals were quarantined prior to start of the investigation for 1 week to permit acclimatization to their new environment and were housed in pairs in conventional cages in a light-controlled room kept at 22±1° C. with a relative humidity of 55±10%. All animals received standard laboratory rat chow and water for consumption ad libitum.
All animals were initially anesthetized with a mixture of ketamine (Nimatek, Eurovet Animal Health BV, Bladel, The Netherlands; 90 mg/kg), dexmedetomidine (Dexdomitor, Pfizer Animal Health BV, Capelle aan den IJssel, The Netherlands; 0.5 mg/kg), and atropine sulfate (Centrafarm BV, Etten-Leur, The Netherlands; 0.05 mg/kg) by intraperitoneal injection. Once anesthetized, the area between the thoracic manubrium and chin and the left flank covering the left kidney were shaved and cleaned prior to initiating the surgical procedure. During the remainder of the surgical preparation and experimental procedures, anesthesia was maintained via tracheotomy and mechanical ventilation with an inspired oxygen fraction (FiO2) of 0.4. Body temperature was maintained at 37±0.5° C. during the entire experiment. The ventilator settings were adjusted to maintain an arterial pCO2 between 35 and 40 MmHg.
For drug and fluid administration and hemodynamic monitoring, three vessels were cannulated with polyethylene catheters (outer diameter=0.9 mm; Braun, Melsungen, Germany). A catheter in the right carotid artery was connected to a pressure transducer to monitor arterial blood pressure and heart rate. The right jugular vein was cannulated for continuous infusion of Ringer's lactate (Baxter, Utrecht, The Netherlands) at a rate of 15 ml/kg/hr. The femoral artery was cannulated for withdrawing blood samples for blood gas analysis. Animals were kept under general anesthesia during all experiments and received continuous intravenous diluted ketamine or analgesic drug infusions. The left kidney was exposed, decapsulated, and immobilized in a Lucite (i.e. poly (methyl methacrylate); PMMA) custom made kidney cup via a ˜4 cm incision on the left flank. The renal artery and vein were carefully separated to preserve the surrounding nerves and adrenal gland. A perivascular ultrasonic transient time flow probe (type 0.7 RB; Transonic Systems, Ithaca, N.Y., USA) was placed around the left renal artery and connected to a flow meter (T206; Transonic Systems, Ithaca, N.Y., USA) to allow continuous measurement of renal blood flow (RBF). The left ureter was isolated, ligated, and cannulated with a polyethylene catheter (outer diameter=0.9 mm; Braun, Melsungen, Germany) for urine collection. A small piece of aluminum foil (10×10 mm) was placed on the dorsal site of the renal vein to prevent contribution of juxtaposed and underlying tissues from interfering with the phosphorescence signal in the venous pO2 measurement. After the surgical protocol (˜60 min), one optical fiber was placed 1 mm above the decapsulated kidney and another optical fiber 1 mm above the renal vein to measure oxygenation using a phosphorescence lifetime technique (20). Oxyphor G2 (Oxygen Enterprises, Philadelphia, Pa., USA; 6 mg/kg) was subsequently infused intravenously for 5 min, followed by 30 min of stabilization time.
The operation field was covered with a humidified gauze compress throughout the entire experiment to prevent drying of the exposed tissues in the surgical field. The phosphorescence lifetime measurements have been described in more details elsewhere (20). The experiment was terminated by infusion of 1 ml of 3 M potassium chloride. Finally, the kidney was removed, weighed, and processed for histological evaluation. The correct placements of the catheters were also checked postmortem. […]

critically ill patients = conditions: intensive insulin therapy, cited from earlier work
[1] = BMOV 7 and 15 mg/kg infusion, 30 min ischemia, 90 min reperfusion, effect not dose-dependent
[2] = high dose BMOV (15 mg/kg) compared to low dose (7 mg/kg)
[3] = kidney immunohistochemistry after 30 min ischemia, 90 min reperfusion, vs I/R control, dose-dependent

| Compound | mean arterial pressure (male Wistar rats; [1]) | microvascular oxygenation in the renal cortex (male Wistar rats; [1]) | microvascular oxygenation in the renal medulla (male Wistar rats; [1]) | renal blood flow (male Wistar rats; [1]) | renal oxygen delivery (male Wistar rats; [1]) | renal oxygen utilization efficiency (VO2/Tna+) (male Wistar rats; [1]) | renal hemodynamics (male Wistar rats; FIG. 2, 30 min ischemia, 90 min reperfusion) | NGAL levels (male Wistar rats; [2]) | iNOS expression (male Wistar rats; [2]) | inflammatory activation (IL-6, iNOS expression, MPO-stained leukocytes) (male Wistar rats; [3]) | renal injury (biomarkers NGAL, L-FABP) (male Wistar rats; [3]) | overall ICU mortality (critically ill patients; reduced from 8%) [%] | ICU mortality among patients requiring more than five days intensive care (critically ill patients; reduced from 20.2%) [%] |
| --- | --- | --- | --- | --- | --- | --- | --- | --- | --- | --- | --- | --- | --- |
| Cc1occc(=O)c1[O-].Cc1occc(=O)c1[O-].[O]=[V+2] [BMOV, bis(maltolato)oxovanadium(IV)] | did not affect | significantly increased | significantly increased | did not affect | did not affect | increased | did not affect | significantly lower | significantly lower | significantly decreased | significantly decreased |  |  |
| insulin: intensive insulin therapy in critically ill ICU patients, literature |  |  |  |  |  |  |  |  |  |  |  | 4.6 | 10.6 |

— patent US11179401B2, “Use of vanadium compounds for maintaining normaglycemia in a mammal” (CFM Pharma Holding BV, priority 2011, dated 2021)
